Data taken from PMC12649549, “Sequence Permutation Generated Lysine and Tryptophan-Rich Antimicrobial Peptides with Enhanced Therapeutic Index” (Antibiotics, 2025).
Where two headings read alike, the source gives them in different places.

Columns and labels:
S. aureus ATCC 6538 = system: S. aureus ATCC 6538
In short: (§1)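 Broth microdilution per CLSI in Müller-Hinton broth and modified LYM broth (pH 7.4; variants with 300–50 mM NaCl, 2.5–0.5 mM MgCl2, or pH 6.5–4.5). Inoculum 5 × 10^5 CFU/mL; peptides at final 50 to 0.78 µg/mL, twofold series. MIC reported; three independent repeats.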

S. aureus ATCC 33593 = system: S. aureus ATCC 33593
In short: as §1

[1] = system: Escherichia coli (ATCC 25922)
In short: as §1

S. aureus ATCC 25923 = system: S. aureus ATCC 25923
In short: as §1

[2] = system: A. baumannii 14B00100 (Acinetobacter sp., BCRC number 14B0100)
In short: as §1

S. aureus ATCC 33591 = system: S. aureus ATCC 33591
In short: as §1

[3] = system: A. baumannii 14B0097 (Acinetobacter sp., BCRC number 14B0097)
In short: as §1

[4] = system: A. baumannii 14B0091 (Acinetobacter sp., BCRC number 14B0091)
In short: as §1

[5] = LYM broth, 0 mM NaCl, 16 h, 37 °C
[6] = LYM broth, 50 mM NaCl, 16 h, 37 °C
[7] = LYM broth, 100 mM NaCl, 16 h, 37 °C
[8] = LYM broth, 200 mM (NaCl), 16 h, 37 °C
[9] = LYM broth, 300 mM (NaCl), 16 h, 37 °C
[10] = MH broth, 5 × 10^5 CFU/mL, 16 h, 37 °C, repeated three times

Measured: MIC

Ac-KWLAKKKKWRKWL-NH2 [Peptide W5K07]
>50 µg/mL: S. aureus ATCC 6538; [9] | S. aureus ATCC 6538; [10] | S. aureus ATCC 33593; [9] | S. aureus ATCC 33593; [10] | [1]; [8] | [1]; [9] | S. aureus ATCC 25923; [9] | S. aureus ATCC 33591; [9] | S. aureus ATCC 33591; [10] | [3]; [9] | [4]; [9]
6.25 µg/mL: S. aureus ATCC 6538; [5] | S. aureus ATCC 6538; LYM broth, 1.5 mM MgCl2 | S. aureus ATCC 6538; LYM broth, 2.5 mM MgCl2 | S. aureus ATCC 6538; LYM broth, pH 4.5 | S. aureus ATCC 6538; LYM broth, pH 5.5 | [1]; LYM broth, pH 5.5 | [1]; LYM broth, pH 6.5 | S. aureus ATCC 25923; [5] | S. aureus ATCC 25923; LYM broth, 0.5 mM MgCl2 | S. aureus ATCC 25923; LYM broth, pH 5.5 | [2]; [6] | [2]; [7] | [3]; [6] | [4]; [6] | [4]; [7] | [4]; LYM broth, pH 4.5
12.5 µg/mL: S. aureus ATCC 6538; [6] | S. aureus ATCC 6538; [7] | S. aureus ATCC 33593; LYM broth, pH 5.5 | S. aureus ATCC 33593; LYM broth, pH 6.5 | [1]; [5] | [1]; LYM broth, 0.5 mM MgCl2 | [1]; LYM broth, pH 4.5 | S. aureus ATCC 25923; LYM broth, 1.5 mM MgCl2 | S. aureus ATCC 25923; LYM broth, 2.5 mM MgCl2 | S. aureus ATCC 25923; [6] | S. aureus ATCC 25923; LYM broth, pH 4.5 | [2]; [10] | S. aureus ATCC 33591; LYM broth, pH 6.5 | [3]; [7] | [3]; [10] | [4]; [10]
25 µg/mL: S. aureus ATCC 33593; [5] | S. aureus ATCC 33593; LYM broth, 0.5 mM MgCl2 | S. aureus ATCC 33593; LYM broth, 1.5 mM MgCl2 | S. aureus ATCC 33593; LYM broth, 2.5 mM MgCl2 | S. aureus ATCC 33593; [6] | S. aureus ATCC 33593; LYM broth, pH 4.5 | [1]; LYM broth, 1.5 mM MgCl2 | [1]; LYM broth, 2.5 mM MgCl2 | [1]; [6] | S. aureus ATCC 25923; [7] | [2]; [8] | S. aureus ATCC 33591; [5] | S. aureus ATCC 33591; LYM broth, 0.5 mM MgCl2 | S. aureus ATCC 33591; LYM broth, 1.5 mM MgCl2 | S. aureus ATCC 33591; LYM broth, 2.5 mM MgCl2 | S. aureus ATCC 33591; [6] | S. aureus ATCC 33591; LYM broth, pH 4.5 | S. aureus ATCC 33591; LYM broth, pH 5.5
50 µg/mL: S. aureus ATCC 6538; [8] | S. aureus ATCC 33593; [7] | S. aureus ATCC 33593; [8] | [1]; [7] | [1]; [10] | S. aureus ATCC 25923; [8] | S. aureus ATCC 25923; [10] | [2]; [9] | S. aureus ATCC 33591; [7] | S. aureus ATCC 33591; [8] | [3]; [8] | [4]; [8]
3.13 µg/mL: S. aureus ATCC 6538; LYM broth, 0.5 mM MgCl2 | S. aureus ATCC 6538; LYM broth, pH 6.5 | S. aureus ATCC 25923; LYM broth, pH 6.5 | [2]; [5] | [2]; LYM broth, 0.5 mM MgCl2 | [2]; LYM broth, 1.5 mM MgCl2 | [2]; LYM broth, 2.5 mM MgCl2 | [2]; LYM broth, pH 4.5 | [2]; LYM broth, pH 5.5 | [2]; LYM broth, pH 6.5 | [3]; [5] | [3]; LYM broth, 0.5 mM MgCl2 | [3]; LYM broth, 1.5 mM MgCl2 | [3]; LYM broth, 2.5 mM MgCl2 | [3]; LYM broth, pH 4.5 | [3]; LYM broth, pH 5.5 | [3]; LYM broth, pH 6.5 | [4]; [5] | [4]; LYM broth, 0.5 mM MgCl2 | [4]; LYM broth, 1.5 mM MgCl2 | [4]; LYM broth, 2.5 mM MgCl2 | [4]; LYM broth, pH 5.5 | [4]; LYM broth, pH 6.5
